Data set [1] has as its system SARS-CoV-2 infected Vero E6 cells.
The subject of data set [2] is SARS-CoV-2 infected Huh 7.5.1 cells. The note with it: for EC50: read-out: EC50 Huh 7.5.1.
The next data set has as its system Huh 7.5.1 cells. Particulars: read-out: CC50 Huh 7.5.1.
Data set [3] has as its target T1, 3CL^pro (Severe acute respiratory syndrome coronavirus 2, UniProt P0DTD1). The note with it: for IC50: read-out: IC50 against 3CL^pro.
A short description of data set [4]: Axial ligand exchange with DMSO, DMF or water followed by 1H-NMR. It is filed as physicochemical.
Data set [5] deals with T1, 3CL^pro.
The next data set has as its target cathepsin B (Homo sapiens, UniProt P07858). In words: Cathepsin B enzymatic assay. It is filed as biochemical. Particulars: read-out: IC50 against Cathepsin B; three independent experiments.
Another data set addresses Furin (Homo sapiens, UniProt P09958). The class given is biochemical. Particulars: read-out: IC50 against Furin; three independent experiments.
The target in data set [6] is SARS-CoV-2 Papain-like protease (PL^pro) (Severe acute respiratory syndrome coronavirus 2, UniProt P0DTD1). The class given is biochemical. Particulars: read-out: IC50 against PL^pro.
For data set [7], the target named is transmembrane serine protease 2 (TMPRSS2) (Homo sapiens, UniProt O15393). Briefly: TMPRSS2 enzymatic assay. It is filed as biochemical. The note with it: read-out: IC50 against TMPRSS2; three independent experiments.
Chain of transmembrane serine protease 2 (TMPRSS2) (O15393 whole entry): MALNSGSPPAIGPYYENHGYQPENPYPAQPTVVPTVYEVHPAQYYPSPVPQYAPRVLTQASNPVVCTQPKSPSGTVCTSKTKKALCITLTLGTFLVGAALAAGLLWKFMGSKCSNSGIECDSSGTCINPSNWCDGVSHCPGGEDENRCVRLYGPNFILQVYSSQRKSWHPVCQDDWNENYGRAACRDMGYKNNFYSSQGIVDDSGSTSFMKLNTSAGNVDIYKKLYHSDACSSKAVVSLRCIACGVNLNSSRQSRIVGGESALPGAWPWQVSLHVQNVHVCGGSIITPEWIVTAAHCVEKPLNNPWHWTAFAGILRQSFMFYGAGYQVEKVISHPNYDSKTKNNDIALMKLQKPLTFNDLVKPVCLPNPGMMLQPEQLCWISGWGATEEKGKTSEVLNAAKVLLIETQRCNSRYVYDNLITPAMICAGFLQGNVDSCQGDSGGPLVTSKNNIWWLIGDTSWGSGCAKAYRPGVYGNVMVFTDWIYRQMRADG
The target in data set [8] is T1, 3CL^pro. This is another data set of the same source.
The nature of another data set: Aqueous solubility tests. It is filed as physicochemical. Particulars: 0.4–0.1% DMSO or DMF in phosphate-buffered saline.
In a further data set the target is beta-secretase 1 (BACE1) (Homo sapiens, UniProt P56817). The class given is biochemical. The note with it: read-out: IC50 against BACE1; three independent experiments.
Chain of beta-secretase 1 (BACE1) (P56817 46-501): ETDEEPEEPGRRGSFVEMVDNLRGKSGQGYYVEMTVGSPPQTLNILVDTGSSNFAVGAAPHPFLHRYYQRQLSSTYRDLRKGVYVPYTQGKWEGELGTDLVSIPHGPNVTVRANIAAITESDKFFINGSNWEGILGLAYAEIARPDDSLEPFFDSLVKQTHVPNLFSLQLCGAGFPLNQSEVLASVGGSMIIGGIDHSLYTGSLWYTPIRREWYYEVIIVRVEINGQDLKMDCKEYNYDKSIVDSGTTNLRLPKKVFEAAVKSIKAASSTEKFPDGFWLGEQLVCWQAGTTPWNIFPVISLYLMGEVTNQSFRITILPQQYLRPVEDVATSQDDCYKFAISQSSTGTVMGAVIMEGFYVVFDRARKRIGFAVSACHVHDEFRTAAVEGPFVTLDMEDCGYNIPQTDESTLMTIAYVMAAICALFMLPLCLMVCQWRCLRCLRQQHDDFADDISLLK
A further data set addresses cathepsin L (Homo sapiens, UniProt P07711). In words: Cathepsin L enzymatic assay. It is filed as biochemical. Particulars: read-out: IC50 against Cathepsin L; three independent experiments.
Data set [9] deals with dipeptidyl peptidase-4 (DPP4) (Homo sapiens, UniProt P27487). In words: DPP4 enzymatic assay. The class given is biochemical. The note with it: read-out: IC50 against DPP4; three independent experiments.
Chain of dipeptidyl peptidase-4 (DPP4) (P27487 whole entry): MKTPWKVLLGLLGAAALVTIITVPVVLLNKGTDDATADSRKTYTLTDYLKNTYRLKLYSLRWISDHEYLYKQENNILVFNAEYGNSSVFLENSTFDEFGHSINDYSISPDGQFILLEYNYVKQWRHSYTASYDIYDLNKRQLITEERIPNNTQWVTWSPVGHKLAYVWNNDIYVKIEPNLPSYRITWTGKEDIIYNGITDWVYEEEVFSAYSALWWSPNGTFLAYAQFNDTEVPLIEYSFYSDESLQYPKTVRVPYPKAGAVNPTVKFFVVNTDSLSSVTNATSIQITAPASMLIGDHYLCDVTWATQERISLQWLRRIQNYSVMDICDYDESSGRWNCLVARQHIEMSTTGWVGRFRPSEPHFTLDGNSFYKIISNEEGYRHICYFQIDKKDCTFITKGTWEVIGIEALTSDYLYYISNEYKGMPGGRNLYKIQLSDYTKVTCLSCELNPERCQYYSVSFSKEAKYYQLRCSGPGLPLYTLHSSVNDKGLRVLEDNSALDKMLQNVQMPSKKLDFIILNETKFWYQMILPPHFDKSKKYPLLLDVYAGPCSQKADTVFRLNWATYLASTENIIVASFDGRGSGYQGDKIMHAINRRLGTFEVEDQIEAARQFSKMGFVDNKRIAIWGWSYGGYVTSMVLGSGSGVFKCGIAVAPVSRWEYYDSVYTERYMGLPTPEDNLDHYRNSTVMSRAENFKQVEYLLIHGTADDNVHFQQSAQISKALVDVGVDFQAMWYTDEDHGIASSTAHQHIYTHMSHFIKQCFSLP
Data set [10] has as its system SARS-CoV-2 infected Vero E6 cells. The class given is cell-based. Particulars: immunofluorescence microscopy.
In a further data set the test system is Vero E6 cells. Particulars: read-out: CC50 Vero E6.
Data set [11] is described as follows: in vitro. Particulars: human.
Data set [12] has as its system SARS-CoV-2 infected Huh 7.5.1 cells. Briefly: microbe, parasite or virus in culture. The note with it: Severe acute respiratory syndrome coronavirus 2, Huh-7.5.1, 48 h, read-out: EC50 Huh 7.5.1.
A short description of data set [13]: in vitro. Particulars: African green monkey.

SMILES strings stand for the structures. Where two headings read alike, the source gives them in different places. A value given as a limit tells only on which side of the number the result lay.

Chain of Furin (P09958 108-794): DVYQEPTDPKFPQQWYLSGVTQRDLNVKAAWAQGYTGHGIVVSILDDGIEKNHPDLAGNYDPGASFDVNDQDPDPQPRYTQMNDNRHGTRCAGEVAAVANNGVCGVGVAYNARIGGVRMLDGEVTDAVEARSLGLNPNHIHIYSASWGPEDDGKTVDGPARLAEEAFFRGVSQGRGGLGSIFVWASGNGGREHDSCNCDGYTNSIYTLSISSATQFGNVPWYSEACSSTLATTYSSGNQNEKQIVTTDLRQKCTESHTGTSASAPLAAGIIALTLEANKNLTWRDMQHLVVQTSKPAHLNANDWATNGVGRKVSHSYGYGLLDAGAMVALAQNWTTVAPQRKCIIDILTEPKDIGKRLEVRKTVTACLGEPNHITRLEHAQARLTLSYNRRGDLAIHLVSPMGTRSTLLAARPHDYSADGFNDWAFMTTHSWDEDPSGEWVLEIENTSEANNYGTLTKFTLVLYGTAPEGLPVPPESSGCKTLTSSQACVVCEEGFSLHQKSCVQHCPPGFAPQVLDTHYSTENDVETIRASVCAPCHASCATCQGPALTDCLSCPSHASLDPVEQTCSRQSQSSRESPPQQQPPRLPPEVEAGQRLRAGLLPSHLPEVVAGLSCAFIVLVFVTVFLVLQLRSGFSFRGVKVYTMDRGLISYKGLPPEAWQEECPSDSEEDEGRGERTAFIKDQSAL
Chain of cathepsin L (P07711 114-333): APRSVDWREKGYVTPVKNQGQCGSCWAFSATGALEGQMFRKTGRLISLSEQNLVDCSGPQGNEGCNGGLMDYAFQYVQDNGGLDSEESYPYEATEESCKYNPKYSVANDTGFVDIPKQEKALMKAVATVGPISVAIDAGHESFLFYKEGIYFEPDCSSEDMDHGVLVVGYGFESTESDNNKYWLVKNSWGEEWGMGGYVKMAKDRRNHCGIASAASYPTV

With `CS(C)=O.O=C([O-])c1ccccn1.[C-]#[O+].[C-]#[O+].[C-]#[O+].[Re+]` [1DMSO, [Re(pic)(CO)3(DMSO)]], the “SI Vero E6 (CC50/EC50; therapeutic index)” value in [1] is given as over 9. Moreover, in data set [2], the “SI Huh 7.5.1 (CC50/EC50; therapeutic index)” value worked out at 9 and the EC50 is 1.8 ± 0.5 µM. Moreover, the CC50 with Huh 7.5.1 cells stood at 16.5 ± 1.3 µM. For the same compound, on 3CL^pro [3], the “effect of extending the preincubation time on 3CL^pro inhibition” value is on record as “strongly enhance the inhibitory activity over time” and the half-inhibitory concentration (IC50) is 16.5 ± 3.4 µM. Moreover, the “aqueous stability of the DMSO adduct” value in [4] (2 : 8 DMSO-d6 : H2O, up to 6 h) is reported as “the majority of the compound remained as the DMSO adduct even after 6 h”.

As for `O.O=C([O-])c1ccccn1.[C-]#[O+].[C-]#[O+].[C-]#[O+].[Re+]` [Compound 1, [Re(pic)(CO)3(H2O)]], on 3CL^pro [5], the “adduct formation with 3CL^pro (deconvoluted mass spectrum)” value is recorded as “a single attached metal complex”. The “adduct formation with the GC376-3CL^pro adduct (binding competition)” value on 3CL^pro [5] is recorded as “did not show the formation of new products”. In addition, the half-maximal inhibitory concentration (IC50) on cathepsin B was over 100 µM; on Furin, over 100 µM; in data set [6] it was over 100 µM; in data set [7] it was over 100 µM; at 3CL^pro [3] it was 9.1 ± 1.8 µM; on beta-secretase 1 (BACE1), 83 ± 6 µM. Besides, the concentration for half-maximal inhibition (IC50) on cathepsin L was 53 ± 7 µM; in data set [9], over 100 µM. On 3CL^pro [8], the “Re content bound to protein” value was 0.7 ± 0.2 equivalents of Re per 3CL^pro. Moreover, the “precipitate or aggregate formation by DLS” value in “Aqueous solubility tests” is given as “No particle formation or aggregation was observed”. Besides, in [4], the “time to full exchange of the axial ligand in DMF-d7” value is listed as at most 6 h. Also, the “aqua ligand exchange in DMSO-d6” value in data set [4] (within 5 min) is on record as “rapid exchange of the aqua ligand with DMSO”.

`O=C([O-])c1ncccc1F.[C-]#[O+].[C-]#[O+].[C-]#[O+].[Re+]` [Compound 2]: the half-inhibitory concentration (IC50) at 3CL^pro [3] was 19 ± 3.7 µM.

Regarding `O=C([O-])c1cc(O)ccn1.[C-]#[O+].[C-]#[O+].[C-]#[O+].[Re+]` [Compound 18], the IC50 on cathepsin B was over 100 µM; at Furin it was over 100 µM; in [6] it was over 100 µM; in data set [7], over 100 µM; at 3CL^pro [3], 4.6 ± 0.5 µM; on beta-secretase 1 (BACE1), 76 ± 8 µM. Further, the IC50 is 67 ± 9 µM at cathepsin L and over 100 µM in [9].

For `Nc1ccnc(C(=O)[O-])c1.[C-]#[O+].[C-]#[O+].[C-]#[O+].[Re+]` [Compound 20], the 50% inhibitory concentration (IC50) on 3CL^pro [3] was found to be 8.4 ± 2.2 µM.

For the compound `O=C([O-])c1cccc(O)n1.[C-]#[O+].[C-]#[O+].[C-]#[O+].[Re+]` [Compound 38], the IC50 at 3CL^pro [3] was determined as 8.8 ± 3.4 µM.

On to `COc1cccc(C(=O)[O-])n1.[C-]#[O+].[C-]#[O+].[C-]#[O+].[Re+]` [Compound 39], for which the IC50 at 3CL^pro [3] amounted to 8.5 ± 1.9 µM.

Turning to `Nc1cccc(C(=O)[O-])n1.[C-]#[O+].[C-]#[O+].[C-]#[O+].[Re+]` [Compound 40], on 3CL^pro [3], the IC50 stood at 10.9 ± 3.1 µM.

On to `CN1CCN(C(=O)N[C@@H](Cc2ccccc2)C(=O)N[C@H](/C=C/S(=O)(=O)c2ccccc2)CCc2ccccc2)CC1` [K777], for which the “SI Vero E6 (CC50/EC50; therapeutic index)” value in data set [1] (Vero E6 cells) is over 222. The concentration giving a half-maximal response (EC50) is 0.009 ± 0.002 µM in [1] (read-out: EC50 Vero E6) and over 2 µM in [2]. For the same compound, in [10], the “concentration protecting cells from viral infection” value is on record as at most 125 nM. Moreover, the CC50 in the data set on Vero E6 cells and in the data set with Huh 7.5.1 cells was over 2 µM each time.

`CCC(CC)COC(=O)[C@H](C)N[P@](=O)(OC[C@H]1O[C@@](C#N)(c2ccc3c(N)ncnn23)[C@H](O)[C@@H]1O)Oc1ccccc1` [Remdesivir]: the CC50 in the data set “in vitro [11]” and in the data set “in vitro [13]” was over 20 µM in each case. Moreover, the “SI Vero E6 (CC50/EC50; therapeutic index)” value in [1] (Vero E6 cells) is on record as over 4. The EC50 in data set [12] is under 0.04 µM. For the same compound, the “SI Huh 7.5.1 (CC50/EC50; therapeutic index)” value in data set [2] (Huh 7.5.1 cells) is over 500.

(Values after PMC9848156 (Chemical Science, 2022).)
